Data on ten compounds can be found in ChEMBL document CHEMBL1201862, “PubChem BioAssay data set” (2004).

Molecules are shown by their SMILES.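 48-hour exposure; five concentrations; linearly interpolated endpoints. The concentration for 50% growth inhibition is given as GI50.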 Activity calls are given as the source filed them. No stated cut-off is given here; in the data, active = GI50 up to about 1.1 µM and inactive = higher.

Among the test systems are NCI-H460; NCI/ADR-RES; NCI-H226; UACC-62; HT-29; A498; A549; NCI-H522; RPMI-8226; BT-549; CAKI-1; IGROV-1; HCT-15; NCI-H23; M14; MOLT-4; 786-0; SK-MEL-28; SNB-75; CCRF-CEM.
What all share (assay): NCI anticancer screen, dose series, 48 h

As to `COc1ccc(CNc2nc(NCc3ccc(OC)cc3)nc(N3CCOCC3)n2)cc1`, the GI50 in the assay with NCI-H460 is 4.23 µM (inactive); with NCI/ADR-RES it was 2.84 µM (inactive); in the assay with NCI-H226 it was 19.2 µM (inactive); in the assay with UACC-62 it was 3.58 µM (inactive); in the assay on HT-29, 2.79 µM (inactive); in the assay on A498, 11 µM (inactive). For the same compound, the GI50 in the assay with A549 is 7.13 µM (inactive); in the assay with NCI-H522, 3.95 µM (inactive); in the assay with RPMI-8226, 1.69 µM (inactive); in the assay on BT-549, 19.1 µM (inactive); with CAKI-1 it was 2.71 µM (inactive); with IGROV-1, 7.91 µM (inactive). Also, the GI50 is 2.29 µM with HCT-15; 3.91 µM (inactive) in the assay with NCI-H23; 6.35 µM (inactive) in the assay with M14; 2.88 µM (inactive) in the assay on MOLT-4; 5.25 µM (inactive) in the assay with 786-0; 40.2 µM (inactive) in the assay with SK-MEL-28. Besides, in the assay with SNB-75, the GI50 was 5.51 µM (inactive).
As to `N/C(=N\n1c(=S)[nH]c2ccccc2c1=O)Nn1c(=S)[nH]c2ccccc2c1=O`, the GI50 is 44.1 µM (inactive) in the assay with NCI-H460; 47.6 µM (inactive) with NCI/ADR-RES; 21.7 µM (inactive) in the assay with NCI-H226; 75 µM (inactive) in the assay with UACC-62; > 100 µM (inactive) in the assay on A498; > 100 µM (inactive) in the assay with A549. The GI50 is 13.3 µM (inactive) with NCI-H522; 22.4 µM (inactive) in the assay on RPMI-8226; 18.8 µM (inactive) in the assay with CCRF-CEM; 20.3 µM (inactive) in the assay with BT-549; 13.2 µM (inactive) in the assay on CAKI-1; 28.9 µM (inactive) in the assay on IGROV-1. Moreover, the GI50 in the assay on HCT-15 is 22.6 µM; in the assay on NCI-H23, 23.1 µM (inactive); in the assay with M14, 11.4 µM (inactive); in the assay with MOLT-4 it was 11.4 µM (inactive); with 786-0, 15.3 µM (inactive); in the assay on SK-MEL-28, 28.2 µM (inactive). Moreover, the GI50 with SNB-75 is 25.1 µM (inactive).
Turning to `O=C1NC(=S)N/C1=C\c1ccc(Sc2ccccc2C(=O)O)s1`, the GI50 in the assay on NCI-H460 was > 100 µM (inactive); in the assay with NCI/ADR-RES, > 100 µM (inactive); with NCI-H226 it was > 100 µM (inactive); in the assay on UACC-62, 85.3 µM (inactive); in the assay with HT-29, > 100 µM (inactive); in the assay with A498, > 100 µM (inactive). Also, the GI50 in the assay with NCI-H522 was 22.1 µM (inactive); in the assay on RPMI-8226, > 100 µM (inactive); in the assay with BT-549, > 100 µM (inactive); in the assay on CAKI-1, 70.3 µM (inactive); in the assay with IGROV-1 it was > 100 µM (inactive); in the assay with HCT-15, > 100 µM. The GI50 with NCI-H23, in the assay with MOLT-4, in the assay with 786-0, with SK-MEL-28 and with SNB-75 was > 100 µM (inactive) in each case.
As to `O=c1[nH][nH]c(=O)n1CCCCCCn1c(=O)[nH][nH]c1=O`, the GI50 in the assay with NCI-H460, in the assay with NCI/ADR-RES, with NCI-H226, in the assay with UACC-62, with HT-29 and in the assay with A498 was > 100 µM (inactive) each time. In addition, the GI50 in the assay on A549, in the assay on NCI-H522, in the assay on RPMI-8226, with CCRF-CEM, in the assay with BT-549 and in the assay on CAKI-1 was > 100 µM (inactive) each time. The GI50 was > 100 µM with HCT-15; > 100 µM (inactive) with NCI-H23; > 100 µM (inactive) with M14; > 100 µM (inactive) in the assay on MOLT-4; > 100 µM (inactive) with 786-0; > 100 µM (inactive) in the assay on SK-MEL-28. Besides, the GI50 in the assay on SNB-75 is > 100 µM (inactive).
Take `CC(=O)N(C(=O)CC(=O)NNCc1ccccc1Cl)c1ccc(Cl)cc1`: the GI50 in the assay with NCI-H460, in the assay on NCI/ADR-RES, with NCI-H226, in the assay with UACC-62, with HT-29 and with A498 was > 10 µM (inactive) in each case. In addition, the GI50 with A549, in the assay on NCI-H522, with RPMI-8226, in the assay on CCRF-CEM, with BT-549 and in the assay with CAKI-1 was > 10 µM (inactive) throughout. Besides, the GI50 with IGROV-1 is > 10 µM (inactive); in the assay with HCT-15, > 10 µM; in the assay with NCI-H23 it was > 10 µM (inactive); with M14, > 10 µM (inactive); with MOLT-4, > 10 µM (inactive); in the assay with 786-0, > 10 µM (inactive). In addition, the GI50 in the assay on SK-MEL-28 and in the assay with SNB-75 was > 10 µM (inactive) each time.
As for `COC(=O)[C@@H]1C2OC(C)(C)OC2CN1C(=O)OCc1ccccc1` (stereo partly drawn), the GI50 in the assay on NCI-H460, in the assay with NCI/ADR-RES, in the assay with NCI-H226, in the assay on UACC-62, in the assay with HT-29 and with A498 was > 100 µM (inactive) each time. The GI50 in the assay on A549, in the assay on NCI-H522, in the assay with RPMI-8226, with BT-549, in the assay with CAKI-1 and with IGROV-1 was > 100 µM (inactive) in each case. Also, the GI50 is > 100 µM in the assay on HCT-15; > 100 µM (inactive) in the assay on NCI-H23; > 100 µM (inactive) in the assay on M14; > 100 µM (inactive) in the assay on MOLT-4; > 100 µM (inactive) in the assay on 786-0; > 100 µM (inactive) in the assay with SK-MEL-28. Moreover, the GI50 in the assay with SNB-75 is 4.58 µM (inactive).
Consider `C/C(=N\Nc1ccc([N+](=O)[O-])cc1[N+](=O)[O-])c1sc(-n2nc(-c3ccccc3)cc2-c2ccccc2)nc1C`, for which the GI50 was 30.8 µM (inactive) in the assay on NCI-H460; 21.9 µM (inactive) with NCI/ADR-RES; 34.1 µM (inactive) with NCI-H226; 53.6 µM (inactive) in the assay with UACC-62; 17 µM (inactive) in the assay on HT-29; 41 µM (inactive) in the assay on A498. The GI50 in the assay on NCI-H522 was 22 µM (inactive); in the assay on RPMI-8226, 20.9 µM (inactive); with CCRF-CEM it was 19.5 µM (inactive); in the assay on BT-549 it was 36.9 µM (inactive); in the assay with CAKI-1, 20 µM (inactive); with IGROV-1, 0.897 µM (active). The GI50 was 38.6 µM in the assay on HCT-15; 32.9 µM (inactive) in the assay with NCI-H23; 56.4 µM (inactive) with M14; 16.9 µM (inactive) with MOLT-4; 36.7 µM (inactive) with 786-0; 90.2 µM (inactive) in the assay with SK-MEL-28. The GI50 with SNB-75 was 45.5 µM (inactive).
As to `Cc1cn([C@@H]2C[C@H](CO)[C@@H]2O)c(=O)[nH]c1=O`, the GI50 in the assay on NCI-H460, with NCI/ADR-RES, in the assay with NCI-H226, with HT-29, with A498 and in the assay on A549 was > 100 µM (inactive) each time. For the same compound, the GI50 in the assay with NCI-H522, with RPMI-8226, in the assay on CCRF-CEM, in the assay on BT-549, in the assay with CAKI-1 and with IGROV-1 was > 100 µM (inactive) throughout. The GI50 in the assay with HCT-15 was > 100 µM; in the assay with NCI-H23 it was > 100 µM (inactive); in the assay with MOLT-4, > 100 µM (inactive); in the assay with 786-0, > 100 µM (inactive); in the assay with SK-MEL-28, > 100 µM (inactive); in the assay with SNB-75 it was > 100 µM (inactive).
Take `CCOC(=O)c1cc2c([nH]1)C(=O)CC1=C2CCN1Cc1ccccc1`: the GI50 with NCI-H460 was 18.4 µM (inactive); with NCI/ADR-RES it was 20.7 µM (inactive); in the assay on NCI-H226, 0.585 µM (active); in the assay on UACC-62 it was 14.8 µM (inactive); in the assay on HT-29, 16 µM (inactive); in the assay on A498 it was 15.3 µM (inactive). The GI50 in the assay on A549 was 21.4 µM (inactive); in the assay with NCI-H522 it was 17.9 µM (inactive); in the assay on RPMI-8226, 3.81 µM (inactive); in the assay with CCRF-CEM, 4.43 µM (inactive); in the assay with BT-549, 18.1 µM (inactive); in the assay on CAKI-1, 3.46 µM (inactive). Further, the GI50 is 17.9 µM (inactive) with IGROV-1; 8.53 µM in the assay with HCT-15; 16.1 µM (inactive) in the assay on NCI-H23; 4.06 µM (inactive) with MOLT-4; 17.2 µM (inactive) in the assay on 786-0; 17.2 µM (inactive) in the assay on SK-MEL-28. Moreover, the GI50 in the assay with SNB-75 is 23.3 µM (inactive).
Consider `COc1cc2c(cc1OCCCOc1cc3c(cc1OC)C(=O)N1CCC[C@H]1C(=O)N3)N=C[C@@H]1CCCN1C2=O`, for which the GI50 is 19.9 µM (inactive) with NCI-H460; 76.7 µM (inactive) in the assay with NCI/ADR-RES; 14.6 µM (inactive) in the assay with NCI-H226; 6.62 µM (inactive) with UACC-62; 16.9 µM (inactive) in the assay with HT-29; 17.3 µM (inactive) in the assay on A498. Moreover, the GI50 in the assay on A549 is 22.1 µM (inactive); with NCI-H522 it was 1.73 µM (inactive); in the assay with RPMI-8226 it was 6.46 µM (inactive); with BT-549, 10.3 µM (inactive); with CAKI-1, 29.9 µM (inactive); with IGROV-1, 14.6 µM (inactive). Besides, the GI50 was 71.3 µM in the assay on HCT-15; 23.6 µM (inactive) in the assay on NCI-H23; 20.3 µM (inactive) in the assay on M14; 0.206 µM (active) in the assay on MOLT-4; 29 µM (inactive) in the assay on 786-0; 21 µM (inactive) in the assay on SK-MEL-28. Besides, in the assay on SNB-75, the GI50 was 10.1 µM (inactive).
